In brackets after ≈: the same amount, converted by molar mass. Non-standard residues stand in square brackets, D forms with d. Residues, ends and D or L forms follow the SMILES beside them. Nspe = C[C@H](NCC(=O)O)c1ccccc1; NDecylGly = CCCCCCCCCCNCC(=O)O; Nlys = NCCCCNCC(=O)O
Tests used:
Format in all cases: cell-based
[1] = tested on: Staphylococcus aureus SA34; settings: SA34, MHB, 24 h 37 °C
From the text: (§3) The S. pneumoniae strains used were SP04, SP06 and SP07 [46] and Streptococcus gallolyticus SV06 (all isolated from eyes of contact lens wearers during adverse events); P. aeruginosa PAO1 (which was originally isolated from a wound, and is an invasive strain containing the gene exoS) as well as isolates from microbial keratitis, PA 235 (invasive strain containing exoS), PA216 (a cytotoxic strain containing exoU), PA219 (cytotoxic strain containing exoU), PA 233 (cytotoxic strain containing exoU), with various susceptibilities to antibiotics were also used [14]. C. albicans ATCC 10231, a yeast, isolated from case of a human bronchomycosis, was also evaluated.
(§4) The peptoids’ minimum inhibitory and bactericidal concentrations (MIC and MBC) were determined using micro broth dilution methods as previously described with slight modifications, [26, 39, 49, 50], and without using acetic acid and bovine serum albumin [39]. Briefly, bacteria or yeast were suspended in Muller Hinton broth (MHB, Oxoid, Thermo Fisher Scientific, Thebarton, SA, Australia) at 0.1 OD660nm, which was equivalent to 1x10^8 colony forming units (CFU) mL^−1. This suspension was further diluted to achieve 5x10^6 CFU mL^−1. The peptoids were diluted in MHB from 250 to 0.24 μg mL^−1 in 96-well polystyrene microplates (COSTAR, Corning Incorporated, New York, NY, USA) [39]. […] This was followed by addition of 100 μL of each microbial suspensions. Wells with only bacteria or the yeast were treated as a negative control, and wells with only MHB medium were treated as a blank. The plates were incubated at 37 °C with shaking at 120 rpm for 24 h. After incubation, the media in each well was serially diluted in phosphate buffered solution and then inoculated onto tryptone soya agar (Oxoid) plates for bacteria, or Sabouraud’s dextrose agar for the yeast, and incubated at 37 °C for 18 hrs. Post incubation, the number of CFUs on the agar plates was counted.

[2] = tested on: Pseudomonas aeruginosa PA233; settings: PA233, MHB, 24 h 37 °C
From the text: All S. aureus strains used were isolated from cases of microbial keratitis (Table 1) with various susceptibilities to antibiotics. The S. pneumoniae strains used were SP04, SP06 and SP07 [46] and Streptococcus gallolyticus SV06 (all isolated from eyes of contact lens wearers during adverse events); P. aeruginosa PAO1 (which was originally isolated from a wound, and is an invasive strain containing the gene exoS) as well as isolates from microbial keratitis, PA 235 (invasive strain containing exoS), PA216 (a cytotoxic strain containing exoU), PA219 (cytotoxic strain containing exoU), PA 233 (cytotoxic strain containing exoU), with various susceptibilities to antibiotics were also used. C. albicans ATCC 10231, a yeast, isolated from case of a human bronchomycosis, was also evaluated.
The peptoids’ minimum inhibitory and bactericidal concentrations (MIC and MBC) were determined using micro broth dilution methods as previously described with slight modifications, [26, 39, 49, 50], and without using acetic acid and bovine serum albumin [39]. Briefly, bacteria or yeast were suspended in Muller Hinton broth (MHB, Oxoid, Thermo Fisher Scientific, Thebarton, SA, Australia) at 0.1 OD660nm, which was equivalent to 1x10^8 colony forming units (CFU) mL^−1. This suspension was further diluted to achieve 5x10^6 CFU mL^−1. The peptoids were diluted in MHB from 250 to 0.24 μg mL^−1 in 96-well polystyrene microplates (COSTAR, Corning Incorporated, New York, NY, USA). This range was selected to cover the range of MIC values previously reported for ESKAPE pathogens. This was followed by addition of 100 μL of each microbial suspensions. Wells with only bacteria or the yeast were treated as a negative control, and wells with only MHB medium were treated as a blank. The plates were incubated at 37 °C with shaking at 120 rpm for 24 h. After incubation, the media in each well was serially diluted in phosphate buffered solution and then inoculated onto tryptone soya agar (Oxoid) plates for bacteria, or Sabouraud’s dextrose agar for the yeast, and incubated at 37 °C for 18 hrs. Post incubation, the number of CFUs on the agar plates was counted.

[3] = tested on: Staphylococcus aureus SA117; settings: SA117, MHB, 24 h 37 °C
From the text: as §3, §4

[4] = tested on: Streptococcus gallolyticus SG04; settings: SG04, MHB, 24 h 37 °C
From the text: as §3, §4

[5] = tested on: Candida albicans ATCC 10231; assay: MIC/MBC (fungicidal) micro broth dilution; settings: ATCC 10231 (yeast), MHB, 24 h 37 °C
From the text: as §3, §4

[6] = tested on: Streptococcus pneumoniae SP07; settings: SP07, MHB, 24 h 37 °C
From the text: as §3, §4

[7] = tested on: Streptococcus pneumoniae SP06; settings: SP06, MHB, 24 h 37 °C
From the text: as §3, §4

[8] = tested on: Pseudomonas aeruginosa PAO1; settings: PAO1, MHB
From the text: as §3, §4

[9] = tested on: viridans group streptococcus SV06; settings: SV06, MHB, 24 h 37 °C
From the text: as §3, §4

[10] = tested on: Staphylococcus aureus SA113; settings: SA113, MHB, 24 h 37 °C
From the text: as §3, §4

[11] = tested on: Pseudomonas aeruginosa PA216; settings: PA216, MHB, 24 h 37 °C
From the text: as §3, §4

[12] = tested on: Pseudomonas aeruginosa PA235; settings: PA235, MHB, 24 h 37 °C
From the text: as §3, §4

[13] = tested on: Pseudomonas aeruginosa PA219; settings: PA219, MHB, 24 h 37 °C
From the text: as §3, §4

human erythrocytes = assay: In vitro assay for hemolysis, human blood
Method: (§1) Hemolysis caused by the peptoids was measured using 18 to 20 mL of a horse or human blood collected in EDTA-coated tubes which has been centrifuged at 500×g for 5 min. The supernatant was discarded and the pellet containing the cells were resuspended in PBS to a final volume of 20 mL. This step was repeated five times. After the final wash, the pellet was resuspended in PBS at the ratio of 1:10 (1 mL red blood cell: 9 mL PBS) to yield a final red blood cell (RBC) concentration of approximately 5 × 10^8 cells mL^−1. The concentration of RBCs was confirmed using a hemocytometer. The peptoids (stock concentration 2 mM) were diluted sequentially (two-fold dilutions) in PBS to final concentrations of […]. All the dilutions were subsequently mixed with the RBC suspension at the ratio of 1:1. MilliQ water was used as a positive control and PBS was used as a negative control in this assay. All samples were incubated at 37 °C for 3 h. Following incubation, the tubes were centrifuged at 500 x g for five mins, the supernatants were collected, transferred to wells in a 96 well plate and their optical density was measured at 540 nm. The percentage of hemolysis was calculated by dividing the absorbance of the test sample by the absorbance of the positive control, and multiplying by 100. Data are presented as the hemolysis caused by each dilution of peptoid, and as the concentration of peptoid that caused 10 % or 50 % lysis of red blood cells.
(§2) The geometric mean is the nth root of the multiplied numbers, where n is the total number of data values. A similar formula was used to calculate the selectivity ratio, but by using the concentration of peptoid that caused 10 % hemolysis.

horse erythrocytes = assay: In vitro assay for hemolysis, horse blood
Method: as §1, §2

[14] = tested on: Staphylococcus aureus SA65; settings: SA65, MHB, 24 h 37 °C
From the text: as §3, §4

[15] = tested on: Streptococcus pneumoniae SP04; settings: SP04, MHB, 24 h 37 °C
From the text: as §3, §4

tested bacteria = assay: Geometric mean of MIC of the tested bacteria; settings: nth root of the multiplied MICs of the tested bacteria
From the text: as §2

[16] = tested on: Staphylococcus aureus SA114; settings: SA114, MHB, 24 h 37 °C
From the text: as §3, §4

CCCCCCCCCCNCC(=O)N(CCCCN)CC(=O)N(CC(=O)N(CC(=O)N(CCCCN)CC(=O)N(CC(=O)N(CC(=O)N(CCCCN)CC(N)=O)[C@@H](C)c1ccccc1)[C@@H](C)c1ccccc1)[C@@H](C)c1ccccc1)[C@@H](C)c1ccccc1 [TM18] (H-[NDecylGly][Nlys][Nspe][Nspe][Nlys][Nspe][Nspe][Nlys]-NH2)
MIC ([1]; ≥90 % reduction in CFUs): 7.8(6.3)/7.8(6.3) μg mL^−1 | MBC ([1]; ≥99.99 % reduction in CFUs): 7.8(6.3)/7.8(6.3) μg mL^−1 | MIC ([2]; ≥90 % reduction in CFUs): 15 µg/mL (≈ 12.1 µM) | MBC ([2]; ≥99.99 % reduction in CFUs): 31 µg/mL (≈ 24.9 µM) | MIC ([3]; ≥90 % reduction in CFUs): 3.9(3.1)/3.9(3.1) μg mL^−1 | MBC ([3]; ≥99.99 % reduction in CFUs): 3.9(3.1)/3.9(3.1) μg mL^−1 | MIC ([4]; ≥90 % reduction in CFUs): 15(12)/1512) μg mL^−1 | MBC ([4]; ≥99.99 % reduction in CFUs): 15(12)/1512) μg mL^−1 | MIC ([5]; ≥90 % reduction in CFUs): 3.9(3.1)/3.9(3.1) μg mL^−1 | MBC (minimum fungicidal concentration) ([5]; ≥99.99 % reduction in CFUs): 3.9(3.1)/3.9(3.1) μg mL^−1 | MIC ([6]; ≥90 % reduction in CFUs): 15(12)/15(12) μg mL^−1 | MBC ([6]; ≥99.99 % reduction in CFUs): 15(12)/15(12) μg mL^−1 | MIC ([7]; ≥90 % reduction in CFUs): 1.9(1.6)/1.9(1.6) μg mL^−1 | MBC ([7]; ≥99.99 % reduction in CFUs): 1.9(1.6)/1.9(1.6) μg mL^−1 | MIC ([8]; 5x10^6 CFU mL^−1, 24 h 37 °C, ≥90 % reduction in CFUs): 15 µg/mL (≈ 12.1 µM) | MBC ([8]; 24 h 37 °C, ≥99.99 % reduction in CFUs): 31 µg/mL (≈ 24.9 µM) | MIC ([9]; ≥90 % reduction in CFUs): 15(12)/15(12) μg mL^−1 | MBC ([9]; ≥99.99 % reduction in CFUs): 15(12)/15(12) μg mL^−1 | MIC ([10]; ≥90 % reduction in CFUs): 1.9 µg/mL (≈ 1.53 µM) | MBC ([10]; ≥99.99 % reduction in CFUs): 1.95 µg/mL (≈ 1.57 µM) | MIC ([11]; ≥90 % reduction in CFUs): 15(12)/15(12) μg mL^−1 | MBC ([11]; ≥99.99 % reduction in CFUs): 15(12)/15(12) μg mL^−1 | MIC ([12]; ≥90 % reduction in CFUs): 7.8 µg/mL (≈ 6.27 µM) | MBC ([12]; ≥99.99 % reduction in CFUs): 15 µg/mL (≈ 12.1 µM) | MIC ([13]; ≥90 % reduction in CFUs): 15 µg/mL (≈ 12.1 µM) | MBC ([13]; ≥99.99 % reduction in CFUs): 31 µg/mL (≈ 24.9 µM) | Human HC10 (human erythrocytes; concentration causing 10 % lysis of human red blood cells, PBS, 3 h 37 °C, OD 540 nm): 5 µM | Human HC50 (human erythrocytes; concentration causing 50 % lysis of human red blood cells, PBS, 3 h 37 °C, OD 540 nm): 225 µM | SR human blood (ratio HC10 to geometric mean MIC) (human erythrocytes; selectivity ratio): 1 | TI human blood (ratio HC50 to geometric mean MIC) (human erythrocytes; therapeutic index): 45 | Horse HC10 (horse erythrocytes; concentration causing 10 % lysis of horse red blood cells, PBS, 3 h 37 °C, OD 540 nm): 3 µM | Horse HC50 (horse erythrocytes; concentration causing 50 % lysis of horse red blood cells, PBS, 3 h 37 °C, OD 540 nm): 110 µM | SR horse blood (ratio HC10 to geometric mean MIC) (horse erythrocytes; selectivity ratio): 0.6 | TI horse blood (ratio HC50 to geometric mean MIC) (horse erythrocytes; therapeutic index): 22 | MIC ([14]; ≥90 % reduction in CFUs): 3.9(3.1)/3.9(3.1) μg mL^−1 | MBC ([14]; ≥99.99 % reduction in CFUs): 3.9(3.1)/3.9(3.1) μg mL^−1 | MIC ([15]; ≥90 % reduction in CFUs): 15(12)/15(12) μg mL^−1 | MBC ([15]; ≥99.99 % reduction in CFUs): 15(12)/15(12) μg mL^−1 | Geometric mean of MIC (tested bacteria): 5 µM | MIC ([16]; ≥90 % reduction in CFUs): 3.9(3.1)/3.9(3.1) μg mL^−1 | MBC ([16]; ≥99.99 % reduction in CFUs): 3.9(3.1)/3.9(3.1) μg mL^−1
